Patent publication US20240293364A1, “BIOMARKERS FOR CANCER THERAPY USING MDM2 ANTAGONISTS” (OTSUKA PHARMACEUTICAL CO., LTD., priority 2021, published 2024)

Legend:
Type in all cases: cell-based
[1] = tested on: A2780; experiment: CellTiter-Glo cell viability, combination matrix with PARP inhibitors (HSA synergy), A2780; details: A2780, TP53 WT, DDR defective, 72 h
Procedure: (§1) The cell line will be treated with test articles alone, matrix combinations with test articles and culture medium as vehicle control.
(§2) • 1. Harvest cells during the logarithmic growth period and count cell number. • 2. Adjust cell concentrations to 4.0×10^4cells/mL with respective culture medium. • 3. Add 100 μL cell suspensions to three 96-well plates (plates A, B and C) with the final cell density of 4×10^3 cells/well. 4a. Next Day: For the Plates of TO Reading: • 1) Equilibrate the plate A and its content at RT for approximately 30 min. • 2) Add 50 μL CellTiter-Glo reagent to each well. • 3) Mix content for 5 min on an orbital shaker to induce cell lysis. • 4) Allow the plate to incubate at RT for 20 min to stabilize luminescent signal. • 5) Record luminescence (TO) using EnVision Multi Label Reader. 4b. For the Plates of Test Reading: • 1) Prepare 500× solution of test articles (Top working concentration: 10 μM/100 μM of test articles in media with 3-fold serial dilutions to achieve 9 dose levels. • 2) Prepare 10× reference control solutions (Top working concentration: 100 μM in media with 3.16-fold serial dilutions. • 3) Dispense 500× drug solutions in each well (triplicate for each drug concentration) of the plate B using digital dispenser. […] Record luminescence (T3) using EnVision Multi Label Reader. […]

[2] = tested on: MSI-H colorectal cancer PDOs; experiment: Proliferation assays on patient-derived organoids (PDOs), MSI-H colorectal cancer; details: 6 MSI-H colorectal cancer PDOs (FIG. 4C)
Procedure: Organoids were retrieved from the CrownBIO organoid bank and expanded before getting enough quantity according to standard operation procedure. One day before organoids seeding, the needed number of organoids were passaged 1:1 using 50% Matrigel and 50% corresponding culture medium. On Day 0 organoids were seeded and compound added: organoids were collected by adding 20 μl 100× Dispase solution to each well from a 6-well plate, and incubating at 37C for 30 min. After incubation, organoids were collected from all wells and pipetted through a pre-wet 100 μm filter into a 50 ml plastic tube, then filtered the flow through over a pre-wet 20 μm filter, inverted the 20 μm filter and recovered the organoids in a new 50 ml tube, Collect organoids were then resuspended in the corresponding culture media, and counted. Organoids cell suspensions were added to 384-well plate by Multidrop dispenser. 2-4 hours after organoids seeding, compounds were added by Tecan D300e, then plates were placed back into incubator for 5 days' incubation. On day 5, proliferation was assayed by CellTiter-Glo assay. […] The plate was then read (for luminescence) in an Envision plate reader.

[3] = tested on: ATM mutant cell lines (HCC1500, LNCap, HT-144, HepG2); experiment: Proliferation assays on cancer cell lines (CellTiter-Glo), ATM mutant cell lines; details: four ATMmut cell lines: HCC1500 breast, LNCap prostate, HT-144 melanoma, HepG2 liver (FIG. 2C)
Procedure: Cancer cells were cultured in appropriate medium. […] Each cell line was tested in triplicates.

[4] = tested on: ATM mutant cell lines LNCap and HepG2; experiment: Apoptosis assays (Annexin V-FITC/PI flow cytometry); details: LNCap prostate and HepG2 liver (FIG. 2D)
Procedure: After 72-hour incubation of the cells with compound, cells were trypsinised, washed with PBS and immediately used for flow cytometry analysis.
The samples were stained with eBioscience™ Annexin V-FITC Apoptosis Detection Kit (#BMS500FI-100, Thermo Fisher Scientific, Waltham, MA, USA) according to manufacturer's recommendations. Briefly, the samples were washed in PBS and resuspended in 200 μl of 1× binding buffer containing 5 μl of Annexin V-FITC for 10 min at room temperature. Following the incubation, samples were washed with 1× binding buffer and resuspended in 200 μl 1× binding buffer and 10 μl of the 20 μg/ml PI.
The stained samples were then immediately analysed by flow cytometry on Guava easyCyte HT cytometer (Merck-Millipore). The cell populations were separated into three groups: live cells showing only a low level of fluorescence (Annexin V-/PI-), apoptotic cells showing green fluorescence (Annexin V+/PI−) and dead cells showing both red and green fluorescence (Annexin V+/PI+). Data analyses were performed using Microsoft excel and results plotted on Prism version 7 (GraphPad Software, California, USA).

[5] = tested on: CAL-51; experiment: CellTiter-Glo cell viability, combination matrix with PARP inhibitors (HSA synergy), CAL-51; details: CAL-51, TP53 WT, BRCA2 Mutant, 72 h
Procedure: as §1, §2

[6] = Compound 1 in combination with Olaparib
[7] = Compound 1 in combination with Talazoparib

CC[C@@](O)(c1cc(F)c2c(c1)C(=O)N([C@H](c1ccc(Cl)cc1)[C@H](C)C(=O)O)[C@@]2(OC)c1ccc(Cl)cc1)C1CCOCC1 [Example 124, (2S,3S)-3-(4-chlorophenyl)-3-[(1R)-1-(4-chlorophenyl)-7-fluoro-5-[(1S)-1-hydroxy-1-(oxan-4-yl)propyl]-1-methoxy-3-oxo-2,3-dihydro-1H-isoindol-2-yl]-2-methylpropanoic acid]
HSA_Average <−5 Antagonism >+5 Synergy [1, 6]: 6.2 | HSA_Average <−5 Antagonism >+5 Synergy [1, 7]: 12.3 | sensitivity as measured by reduction in cell proliferation [2]: showed sensitivity | sensitivity as measured by reduction in cell proliferation [3]: showed sensitivity | sensitivity as measured by increased apoptosis [4]: showed sensitivity | HSA_Average <−5 Antagonism >+5 Synergy [5, 6]: 8.0 | HSA_Average <−5 Antagonism >+5 Synergy [5, 7]: 15.7
